This is an account of results in ChEMBL document CHEMBL5291721, “A preclinical secondary pharmacology resource illuminates target-adverse drug reaction associations of marketed drugs” (Nat Commun, 2023).

SMILES strings stand for the structures.

The target in assay [1] is T1, Alpha-1A adrenergic receptor (Homo sapiens, UniProt P35348).
T1 sequence (P35348 whole entry): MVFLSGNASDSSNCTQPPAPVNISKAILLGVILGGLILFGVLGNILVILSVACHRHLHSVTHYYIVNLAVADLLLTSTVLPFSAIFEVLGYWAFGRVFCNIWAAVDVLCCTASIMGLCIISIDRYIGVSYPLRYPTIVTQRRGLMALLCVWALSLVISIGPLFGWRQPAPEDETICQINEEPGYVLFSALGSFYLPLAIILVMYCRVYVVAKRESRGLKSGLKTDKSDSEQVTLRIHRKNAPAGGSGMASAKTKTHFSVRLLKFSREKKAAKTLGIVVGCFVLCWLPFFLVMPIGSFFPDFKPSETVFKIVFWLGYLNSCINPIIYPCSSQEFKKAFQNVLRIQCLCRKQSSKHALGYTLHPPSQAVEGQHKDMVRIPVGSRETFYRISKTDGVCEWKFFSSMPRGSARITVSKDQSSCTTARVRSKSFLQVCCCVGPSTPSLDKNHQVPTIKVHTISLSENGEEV
Type of assay: functional, cell-based.

A further assay concerns the target Acetylcholinesterase (Homo sapiens, UniProt P22303). Type of assay: functional.
The target of the next assay is Mu-type opioid receptor (Homo sapiens, UniProt P35372).
The target in assay [2] is Prostaglandin G/H synthase 1 (Homo sapiens, UniProt P23219). The assay is classed as functional.
The next assay concerns the target T2, Adenosine receptor A3 (Homo sapiens, UniProt P0DMS8).
T2 sequence (P0DMS8 whole entry): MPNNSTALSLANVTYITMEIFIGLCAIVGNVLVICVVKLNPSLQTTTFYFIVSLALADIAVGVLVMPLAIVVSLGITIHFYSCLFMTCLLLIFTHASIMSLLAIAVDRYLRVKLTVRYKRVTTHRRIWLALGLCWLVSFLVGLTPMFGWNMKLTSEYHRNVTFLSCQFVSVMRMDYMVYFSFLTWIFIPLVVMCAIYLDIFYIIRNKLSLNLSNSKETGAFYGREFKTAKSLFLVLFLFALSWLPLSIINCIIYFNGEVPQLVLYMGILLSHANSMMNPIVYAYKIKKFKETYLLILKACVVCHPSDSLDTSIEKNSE

The next assay addresses D(1A) dopamine receptor (Homo sapiens, UniProt P21728).
The target of assay [3] is Sodium-dependent dopamine transporter (Homo sapiens, UniProt Q01959).
Assay [4] concerns the target 3',5'-cyclic-AMP phosphodiesterase 4A (Homo sapiens, UniProt P27815). Type of assay: functional.
Assay [5] deals with Sodium-dependent serotonin transporter (Homo sapiens, UniProt P31645).
The target in assay [6] is 5-hydroxytryptamine receptor 2B (Homo sapiens, UniProt P41595). The assay is classed as functional, cell-based.
For a further assay, the target named is Prothrombin (Homo sapiens, UniProt P00734). The assay is classed as functional.
For assay [7], the target named is T3, Thromboxane A2 receptor (Homo sapiens, UniProt P21731).
T3 sequence (P21731 whole entry): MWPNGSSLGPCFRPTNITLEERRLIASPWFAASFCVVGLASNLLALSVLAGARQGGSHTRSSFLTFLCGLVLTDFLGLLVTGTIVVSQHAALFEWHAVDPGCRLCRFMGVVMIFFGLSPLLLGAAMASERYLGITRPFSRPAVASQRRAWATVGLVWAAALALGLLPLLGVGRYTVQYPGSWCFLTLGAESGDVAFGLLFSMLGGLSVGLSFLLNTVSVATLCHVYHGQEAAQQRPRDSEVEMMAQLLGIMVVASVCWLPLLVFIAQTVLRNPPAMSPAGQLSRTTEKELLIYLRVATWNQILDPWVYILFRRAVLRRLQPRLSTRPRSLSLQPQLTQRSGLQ
Type of assay: functional, cell-based.

The target of assay [8] is T3, Thromboxane A2 receptor. The assay is classed as functional, cell-based. This is another data set of the same source.
The target of assay [9] is Sodium-dependent noradrenaline transporter (Homo sapiens, UniProt P23975).
The target of assay [10] is T4, Amine oxidase [flavin-containing] A (Homo sapiens, UniProt P21397).
T4 sequence (P21397 whole entry): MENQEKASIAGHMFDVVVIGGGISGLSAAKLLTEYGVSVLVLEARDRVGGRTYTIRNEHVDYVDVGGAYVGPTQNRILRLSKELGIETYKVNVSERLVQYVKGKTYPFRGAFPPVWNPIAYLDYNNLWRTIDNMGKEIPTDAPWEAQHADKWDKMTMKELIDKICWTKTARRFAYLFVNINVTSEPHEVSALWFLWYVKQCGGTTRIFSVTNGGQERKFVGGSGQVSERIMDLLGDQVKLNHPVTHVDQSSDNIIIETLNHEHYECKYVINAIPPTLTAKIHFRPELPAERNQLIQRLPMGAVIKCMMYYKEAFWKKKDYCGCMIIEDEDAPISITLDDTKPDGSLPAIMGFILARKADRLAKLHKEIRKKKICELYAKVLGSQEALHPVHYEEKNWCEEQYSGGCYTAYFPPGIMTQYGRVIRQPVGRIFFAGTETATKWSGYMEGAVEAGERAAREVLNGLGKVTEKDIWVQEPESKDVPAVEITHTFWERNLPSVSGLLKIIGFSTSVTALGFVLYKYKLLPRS
The assay is classed as functional.

Assay [11] deals with Voltage-gated inwardly rectifying potassium channel KCNH2 (Homo sapiens, UniProt Q12809). Type of assay: functional. Conditions: read-out: AC50.
Further: assay procedure not described here.

Chain of Mu-type opioid receptor (P35372 whole entry): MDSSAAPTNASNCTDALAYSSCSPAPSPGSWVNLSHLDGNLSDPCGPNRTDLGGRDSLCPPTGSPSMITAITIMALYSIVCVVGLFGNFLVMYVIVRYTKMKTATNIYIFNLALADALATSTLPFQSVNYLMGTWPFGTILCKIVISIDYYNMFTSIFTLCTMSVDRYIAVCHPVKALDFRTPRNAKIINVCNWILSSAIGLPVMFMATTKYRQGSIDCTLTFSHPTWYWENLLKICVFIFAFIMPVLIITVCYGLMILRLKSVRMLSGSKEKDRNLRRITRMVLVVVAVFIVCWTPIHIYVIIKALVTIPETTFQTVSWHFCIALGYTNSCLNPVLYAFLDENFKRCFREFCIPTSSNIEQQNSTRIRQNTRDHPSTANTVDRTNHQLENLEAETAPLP
Chain of Sodium-dependent noradrenaline transporter (P23975 whole entry): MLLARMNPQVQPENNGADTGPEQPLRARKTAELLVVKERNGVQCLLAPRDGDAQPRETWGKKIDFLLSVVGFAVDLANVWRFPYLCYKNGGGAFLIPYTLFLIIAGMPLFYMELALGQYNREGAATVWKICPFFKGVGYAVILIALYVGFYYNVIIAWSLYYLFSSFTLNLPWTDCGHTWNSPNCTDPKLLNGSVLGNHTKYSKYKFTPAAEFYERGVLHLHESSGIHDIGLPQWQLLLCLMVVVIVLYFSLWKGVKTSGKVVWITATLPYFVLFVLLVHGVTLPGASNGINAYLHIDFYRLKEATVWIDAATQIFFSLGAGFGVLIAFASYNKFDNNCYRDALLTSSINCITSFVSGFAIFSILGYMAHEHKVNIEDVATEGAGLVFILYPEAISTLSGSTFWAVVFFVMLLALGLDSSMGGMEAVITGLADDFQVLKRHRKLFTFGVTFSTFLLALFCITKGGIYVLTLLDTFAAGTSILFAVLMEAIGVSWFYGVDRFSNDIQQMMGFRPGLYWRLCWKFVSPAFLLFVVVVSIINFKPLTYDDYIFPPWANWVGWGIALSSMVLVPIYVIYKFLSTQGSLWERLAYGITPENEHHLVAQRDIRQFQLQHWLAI
Chain of 3',5'-cyclic-AMP phosphodiesterase 4A (P27815 whole entry): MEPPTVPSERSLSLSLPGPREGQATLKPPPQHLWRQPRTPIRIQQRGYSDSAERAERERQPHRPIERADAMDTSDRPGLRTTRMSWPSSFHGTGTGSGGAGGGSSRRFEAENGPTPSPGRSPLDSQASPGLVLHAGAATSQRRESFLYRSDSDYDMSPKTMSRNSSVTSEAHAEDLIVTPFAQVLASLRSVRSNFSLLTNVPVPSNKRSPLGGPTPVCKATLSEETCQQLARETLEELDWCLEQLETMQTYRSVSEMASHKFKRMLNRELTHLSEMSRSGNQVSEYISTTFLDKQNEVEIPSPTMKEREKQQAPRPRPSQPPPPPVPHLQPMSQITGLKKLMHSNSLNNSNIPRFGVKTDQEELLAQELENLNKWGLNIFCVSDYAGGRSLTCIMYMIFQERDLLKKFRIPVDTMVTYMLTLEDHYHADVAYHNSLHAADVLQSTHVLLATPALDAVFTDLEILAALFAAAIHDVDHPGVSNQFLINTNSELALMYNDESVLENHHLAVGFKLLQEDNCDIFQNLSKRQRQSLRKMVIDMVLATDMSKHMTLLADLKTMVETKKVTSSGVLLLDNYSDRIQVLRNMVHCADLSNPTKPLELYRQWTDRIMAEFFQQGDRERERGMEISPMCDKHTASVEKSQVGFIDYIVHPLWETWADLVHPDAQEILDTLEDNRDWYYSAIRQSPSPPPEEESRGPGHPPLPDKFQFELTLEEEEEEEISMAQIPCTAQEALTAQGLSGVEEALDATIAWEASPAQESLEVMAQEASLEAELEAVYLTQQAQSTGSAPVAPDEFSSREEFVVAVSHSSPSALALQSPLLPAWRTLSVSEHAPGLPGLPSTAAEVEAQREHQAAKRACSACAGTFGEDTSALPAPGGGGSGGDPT
Chain of Sodium-dependent serotonin transporter (P31645 whole entry): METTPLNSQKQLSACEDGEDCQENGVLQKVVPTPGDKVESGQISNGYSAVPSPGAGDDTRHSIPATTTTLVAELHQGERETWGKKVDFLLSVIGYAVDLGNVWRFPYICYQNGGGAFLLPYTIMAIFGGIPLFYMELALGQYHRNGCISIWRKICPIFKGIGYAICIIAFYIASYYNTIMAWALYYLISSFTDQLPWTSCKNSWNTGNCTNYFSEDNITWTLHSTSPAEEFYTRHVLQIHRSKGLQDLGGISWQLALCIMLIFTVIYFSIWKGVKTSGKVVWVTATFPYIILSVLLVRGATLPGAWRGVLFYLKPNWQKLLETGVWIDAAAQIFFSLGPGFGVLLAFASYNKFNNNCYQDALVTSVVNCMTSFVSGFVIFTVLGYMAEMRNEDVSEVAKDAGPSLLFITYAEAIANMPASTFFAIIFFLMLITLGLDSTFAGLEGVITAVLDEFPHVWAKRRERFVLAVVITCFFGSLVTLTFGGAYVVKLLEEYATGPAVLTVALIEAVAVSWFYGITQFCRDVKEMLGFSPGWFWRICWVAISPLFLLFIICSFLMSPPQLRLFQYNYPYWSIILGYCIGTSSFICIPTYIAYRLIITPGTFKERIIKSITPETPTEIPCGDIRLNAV
Chain of Acetylcholinesterase (P22303 whole entry): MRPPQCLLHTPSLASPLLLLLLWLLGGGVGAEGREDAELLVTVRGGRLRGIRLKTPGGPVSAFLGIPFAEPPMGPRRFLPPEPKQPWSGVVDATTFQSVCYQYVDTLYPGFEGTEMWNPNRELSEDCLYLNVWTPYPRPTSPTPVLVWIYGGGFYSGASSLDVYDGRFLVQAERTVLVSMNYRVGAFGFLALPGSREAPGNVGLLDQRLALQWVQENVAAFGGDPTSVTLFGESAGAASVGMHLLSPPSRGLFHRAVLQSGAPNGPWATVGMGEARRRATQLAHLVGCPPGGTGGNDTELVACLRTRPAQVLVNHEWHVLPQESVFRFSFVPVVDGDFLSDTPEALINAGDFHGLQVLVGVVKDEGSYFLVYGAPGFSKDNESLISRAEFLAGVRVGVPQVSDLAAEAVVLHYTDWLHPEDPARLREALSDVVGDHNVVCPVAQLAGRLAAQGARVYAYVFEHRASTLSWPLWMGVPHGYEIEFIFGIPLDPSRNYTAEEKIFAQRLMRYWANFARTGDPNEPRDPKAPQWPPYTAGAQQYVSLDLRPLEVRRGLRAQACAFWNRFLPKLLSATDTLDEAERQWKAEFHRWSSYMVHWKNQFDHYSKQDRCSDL
Chain of Voltage-gated inwardly rectifying potassium channel KCNH2 (Q12809 whole entry): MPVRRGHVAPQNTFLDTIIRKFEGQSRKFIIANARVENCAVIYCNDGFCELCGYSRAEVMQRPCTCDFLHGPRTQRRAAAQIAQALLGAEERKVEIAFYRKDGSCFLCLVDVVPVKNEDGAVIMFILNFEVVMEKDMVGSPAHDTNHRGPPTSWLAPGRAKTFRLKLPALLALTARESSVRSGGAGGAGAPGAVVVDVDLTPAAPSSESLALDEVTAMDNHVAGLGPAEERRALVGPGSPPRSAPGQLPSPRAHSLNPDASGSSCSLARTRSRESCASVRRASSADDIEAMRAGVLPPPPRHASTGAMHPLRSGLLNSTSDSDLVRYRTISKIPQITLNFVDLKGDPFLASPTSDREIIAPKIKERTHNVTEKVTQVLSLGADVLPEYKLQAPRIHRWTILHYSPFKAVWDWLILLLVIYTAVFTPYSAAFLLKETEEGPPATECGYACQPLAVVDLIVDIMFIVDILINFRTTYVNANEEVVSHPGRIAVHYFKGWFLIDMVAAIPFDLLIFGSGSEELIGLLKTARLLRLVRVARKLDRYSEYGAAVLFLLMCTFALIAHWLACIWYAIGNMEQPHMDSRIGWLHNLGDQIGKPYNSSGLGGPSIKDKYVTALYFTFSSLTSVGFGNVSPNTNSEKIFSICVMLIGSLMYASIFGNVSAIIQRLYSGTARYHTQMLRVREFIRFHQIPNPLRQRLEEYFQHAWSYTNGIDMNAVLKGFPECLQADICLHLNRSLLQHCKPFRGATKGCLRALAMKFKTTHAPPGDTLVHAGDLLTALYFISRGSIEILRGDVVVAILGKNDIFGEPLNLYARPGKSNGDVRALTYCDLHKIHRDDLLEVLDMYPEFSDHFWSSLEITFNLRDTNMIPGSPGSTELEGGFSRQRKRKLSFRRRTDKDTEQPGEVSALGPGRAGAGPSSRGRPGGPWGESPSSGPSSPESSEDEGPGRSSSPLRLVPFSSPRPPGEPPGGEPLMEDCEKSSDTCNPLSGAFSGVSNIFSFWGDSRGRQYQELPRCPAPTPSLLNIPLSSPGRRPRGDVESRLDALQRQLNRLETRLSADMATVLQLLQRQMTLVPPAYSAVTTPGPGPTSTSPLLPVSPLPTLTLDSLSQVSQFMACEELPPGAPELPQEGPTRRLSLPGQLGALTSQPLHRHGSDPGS
Chain of D(1A) dopamine receptor (P21728 whole entry): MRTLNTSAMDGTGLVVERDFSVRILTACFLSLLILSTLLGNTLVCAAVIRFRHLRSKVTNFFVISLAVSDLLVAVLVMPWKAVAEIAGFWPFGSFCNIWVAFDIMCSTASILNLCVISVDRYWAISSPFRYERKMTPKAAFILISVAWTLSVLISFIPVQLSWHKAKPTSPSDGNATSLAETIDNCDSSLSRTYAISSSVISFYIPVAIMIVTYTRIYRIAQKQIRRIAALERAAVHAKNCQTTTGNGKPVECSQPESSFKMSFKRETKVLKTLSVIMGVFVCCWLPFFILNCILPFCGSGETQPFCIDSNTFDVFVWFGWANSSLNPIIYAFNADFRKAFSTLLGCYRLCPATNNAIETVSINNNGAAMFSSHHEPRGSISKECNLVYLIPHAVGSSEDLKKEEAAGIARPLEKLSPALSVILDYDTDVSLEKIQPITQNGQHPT

`O=C(c1ccc(F)c(F)c1Nc1ccc(I)cc1F)N1CC(O)([C@@H]2CCCCN2)C1` [COBIMETINIB]: the AC50 (commonly the concentration giving half of the maximal activity seen) in [1] is 13.6 µM; at Acetylcholinesterase it was more than 30 µM; on Mu-type opioid receptor, 0.271 µM; in assay [2], more than 30 µM; on Adenosine receptor A3, more than 30 µM; on D(1A) dopamine receptor, 24.1 µM. Also, the AC50 was 7.3 µM in [3]; more than 30 µM in [4]; 7.82 µM in [5]; more than 30 µM in assay [6]; more than 30 µM on Prothrombin; more than 3 µM on Thromboxane A2 receptor [7]. Further, the concentration at half-maximal activity (AC50) at Thromboxane A2 receptor [8] is 17.6 µM; in assay [9], 16.9 µM; in assay [10], more than 30 µM.
For `CC(C)Cc1ccc(C(C)C(=O)NO)cc1` (centres undefined) [IBUPROXAM], the AC50 (in assay [1]; on Acetylcholinesterase; on Mu-type opioid receptor; on Adenosine receptor A3; at D(1A) dopamine receptor; in assay [3]) was more than 30 µM in each case. In addition, the AC50 in assay [4] is 24.2 µM; in [5], more than 30 µM; in assay [6], more than 30 µM; in [11] it was more than 30 µM; at Prothrombin, more than 30 µM; on Thromboxane A2 receptor [7] it was more than 30 µM. For the same molecule, the concentration at half-maximal activity (AC50) (on Thromboxane A2 receptor [8]; in [9]; in assay [10]) was more than 30 µM each time.
On to `CCN(CC)CCNc1ccc(C)c2sc3ccccc3c(=O)c12` [LUCANTHONE], for which the concentration at half-maximal activity (AC50) is more than 30 µM at Acetylcholinesterase; 11.8 µM at Mu-type opioid receptor; more than 30 µM in assay [2]; 12.4 µM on Adenosine receptor A3; 6.04 µM at D(1A) dopamine receptor; 3.42 µM in [3]. The concentration at half-maximal activity (AC50) in [4] is more than 30 µM; in assay [5] it was 6.25 µM; in [6], more than 30 µM; in assay [11], 1.3 µM; at Prothrombin, more than 30 µM; on Thromboxane A2 receptor [7], 13.4 µM. In addition, the figures for the half-maximal activity concentration (AC50) (on Thromboxane A2 receptor [8]; in [9]; in [10]) were more than 30 µM, 2.68 µM and 16.3 µM, respectively.
In the case of `CCC1(c2cccc(O)c2)CCCCN(C)C1` (centres undefined) [MEPTAZINOL], the AC50 in assay [1] was more than 30 µM; on Acetylcholinesterase, 5.51 µM; in assay [2], more than 3 µM; at Adenosine receptor A3, more than 30 µM; at D(1A) dopamine receptor it was more than 30 µM; in [3], more than 30 µM. The concentration at half-maximal activity (AC50) was more than 30 µM in [4]; 13.5 µM in [5]; more than 30 µM in assay [6]; more than 30 µM in assay [11]; more than 30 µM on Prothrombin; more than 30 µM on Thromboxane A2 receptor [7]. For the same molecule, the AC50 (on Thromboxane A2 receptor [8]; in assay [9]; in assay [10]) was more than 30 µM in each case.
For `CC(=O)OC(C)C[N+](C)(C)C` (centres undefined) [METHACHOLINE], the half-maximal activity concentration (AC50) (in assay [1]; at Acetylcholinesterase; on Mu-type opioid receptor; in [2]; on Adenosine receptor A3; at D(1A) dopamine receptor) was more than 30 µM throughout. Also, the concentration at half-maximal activity (AC50) (in assay [3]; in [4]; in assay [5]; in assay [6]; in assay [11]; on Prothrombin) was more than 30 µM in each case. Moreover, the AC50 was 0.824 µM on Thromboxane A2 receptor [8], more than 30 µM in assay [9] and more than 30 µM in assay [10].
As for `O=[N+]([O-])c1cncn1CCN1CCOCC1` [NIMORAZOLE], the AC50 (in assay [1]; on Acetylcholinesterase; at Mu-type opioid receptor; in assay [2]; on Adenosine receptor A3; at D(1A) dopamine receptor) was more than 30 µM throughout. Also, the AC50 (in assay [3]; in [4]; in assay [5]; in assay [6]; at Prothrombin; at Thromboxane A2 receptor [7]) was more than 30 µM each time. Besides, the concentration at half-maximal activity (AC50) (at Thromboxane A2 receptor [8]; in [9]; in assay [10]) was more than 30 µM each time.
As for `COc1ccc2c(c1)OC(C)(C)C(c1ccccc1)C2c1ccc(OCCN2CCCC2)cc1` (centres undefined) [ORMELOXIFENE], the AC50 on Acetylcholinesterase was more than 30 µM; at Mu-type opioid receptor, 11.2 µM; in [2], 4.3 µM; at Adenosine receptor A3 it was 3.66 µM; on D(1A) dopamine receptor it was 6.98 µM; in [3], 3 µM. Besides, the half-maximal activity concentration (AC50) was more than 30 µM in [4]; 13.2 µM in [5]; more than 30 µM in [6]; 2.7 µM in assay [11]; more than 30 µM on Prothrombin; 12.2 µM on Thromboxane A2 receptor [7]. In addition, the AC50 on Thromboxane A2 receptor [8] was more than 30 µM; in [9], 4.9 µM; in assay [10], more than 30 µM.
As to `O=C(O)CCn1c2c(c3ccccc31)C[C@H](NS(=O)(=O)c1ccc(F)cc1)CC2` [RAMATROBAN], the concentration at half-maximal activity (AC50) (in assay [1]; on Acetylcholinesterase; at Mu-type opioid receptor; in [2]; at D(1A) dopamine receptor; in assay [3]) was more than 30 µM throughout. Also, the half-maximal activity concentration (AC50) is more than 30 µM in [4]; more than 30 µM in assay [5]; more than 30 µM in [6]; more than 30 µM in assay [11]; more than 30 µM at Prothrombin; 0.04 µM at Thromboxane A2 receptor [7]. Also, the AC50 (at Thromboxane A2 receptor [8]; in assay [9]; in assay [10]) was more than 30 µM throughout.
Turning to `CCO[C@@H](Cc1ccc(OCCn2c(C)ccc2-c2ccc(SC)cc2)cc1)C(=O)O` [SAROGLITAZAR], the concentration at half-maximal activity (AC50) was more than 30 µM on Acetylcholinesterase; more than 30 µM at Mu-type opioid receptor; more than 30 µM in assay [2]; 14.9 µM at Adenosine receptor A3; more than 30 µM at D(1A) dopamine receptor; more than 30 µM in assay [3]. Also, the AC50 was 11.1 µM in [4]; more than 30 µM in assay [5]; more than 30 µM in [6]; more than 30 µM in assay [11]; more than 30 µM at Prothrombin; 16.4 µM on Thromboxane A2 receptor [8]. Moreover, the AC50 in assay [9] was 24.5 µM; in assay [10], more than 30 µM.
Take `COc1cc(NCc2ccc3nc(N)nc(N)c3c2C)cc(OC)c1OC` [TRIMETREXATE]: the concentration at half-maximal activity (AC50) in [1] is more than 30 µM; at Acetylcholinesterase it was 1.62 µM; at Mu-type opioid receptor, 1.2 µM; in assay [2], 2.4 µM; at D(1A) dopamine receptor, 1.94 µM; in assay [3] it was 9.54 µM. Further, the AC50 in assay [4] is 7.19 µM; in [5], more than 30 µM; in [6], more than 30 µM; in assay [11], 2.16 µM; on Prothrombin, more than 30 µM; on Thromboxane A2 receptor [7] it was more than 30 µM. The half-maximal activity concentration (AC50) on Thromboxane A2 receptor [8] is more than 30 µM; in assay [9], 12.3 µM; in assay [10], 3.8 µM.
